Structures are written as SMILES.

In the case of `CN(C)CCOc1ccc(CNC(=O)c2ccc(S(N)(=O)=O)cc2)cc1`, the melting point turned out to be 174 °C. On to `Nc1c(Cl)cc(C(=O)Cl)cc1C(F)(F)F`, for which the melting point was 110 to 115 °C. With `O=C1NC(=O)C(c2c[nH]c3ccccc23)=C1C(=O)c1cn2c3c(cccc13)CCC2`, the melting point is over 300 °C.

Turning to `CC(C)OCCOc1c(-c2ccc(S(N)(=O)=O)cc2)cnn(-c2ccc(F)c(F)c2)c1=O`, the melting point lay within 54 to 56 °C. Next, `CCCOc1ccccc1-c1nc(O)cc(C#N)n1`: 135 to 136 °C. Then `Nc1cccc(S(=O)(=O)Nc2nncs2)c1`, with 155 to 158 °C; and `O=C(O)C(Cc1cccc(F)c1)c1ccc(F)cc1` (configuration not stated), with 92 to 94 °C; and `CC(C)(C)c1ccc(O[C@@H]2CCNC[C@H]2O)cc1` (relative stereo), with 138 to 140 °C.

With `NCC(=O)N1c2ccccc2N(Cc2ccccc2)C(=O)[C@H]2CCC[C@H]21` (relative stereo), the melting point fell in the range of 163 to 165 °C.

Molecule `CC(C)(C)c1csc(-c2cc3cc(CO)ccc3o2)n1` displayed a melting point of 143 to 144 °C. Then `c1cc2c3c(c1)CNc1ccccc1N3CC2`, with 175 to 177 °C. Then `CCCCCCCCNC(=O)Nc1ccc(Nc2ccc(N(CC)CCNS(C)(=O)=O)cc2C)c2ccccc12`, with 132 to 133 °C; and `CC(=O)Nc1ncc(SC#N)s1`, with 212 °C. Then `Cc1c(C)c2c(c(C)c1OCc1ccccc1)CCC(C)(CC(=O)O)O2` (configuration not stated), with 91 to 96 °C. The molecule `Cc1cc2cc(Cl)ccc2n1Cc1ccccc1` showed a melting point of 75 to 76 °C.

Take `CC1(C)CCC(C)(C)c2nc3c(ccc4c(-c5ccc(C(=O)O)cc5)cn(Cc5cccnc5)c43)nc21`: the melting point lay within 286 to 288 °C. Regarding `COC(=O)COc1cccc2c1CCC(Br)C2=O` (configuration not stated), the melting point fell in the range of 76 to 77 °C. For the molecule `Cc1ccnc([N+](=O)[O-])c1O`, the melting point was 87 to 88 °C.

`CCOCOc1cc(F)ccc1-c1cc(-c2cccc([N+](=O)[O-])c2)c(C#N)c(NC(=O)c2cccs2)n1` yielded a melting point of 166 to 167 °C. `COc1ccc(-n2c(=O)n(O)c(=O)c3cc(F)c(N4CCN(C)CC4)cc32)cc1` had a melting point of 195 to 196 °C.

`CON=C(c1ccccc1)c1ccc2c(c1)C(C)(C)CCN2CCOc1ccc(CC(OC(C)=O)C(=O)O)cc1` (configuration not stated): the melting point fell in the range of 64 to 66 °C. Next, `CCOC(=O)CSC1=C(C=O)CCc2c(C(=O)OCC)sc(SC)c21`: 102 to 103 °C; `CCOC(=O)c1c(-c2cccc(C)c2)oc(Cl)c(Cl)c1=O`: 113 °C. As for `N#Cc1c(F)nn(-c2c(Cl)cc(C(F)(F)F)cc2Cl)c1N`, the melting point was in the range of 193 to 194 °C. Next, `O=c1[nH]c2ccc(S(=O)CCN3CCC(Cc4ccc(Cl)c(Cl)c4)CC3)cc2o1` (configuration not stated): 189 to 191 °C. In turn, `N#CC1=C(C2CC2)Nc2n[nH]cc2C1c1cccc(C#N)c1Br` (configuration not stated) registered a melting point of over 250 °C. As to `O=C(O)Cn1c(=O)c2cc(Cl)ccc2n(Cc2ccc(Br)cc2F)c1=O`, the melting point was 189 °C. Then `COc1ccc(CN2CCc3cc(O)c(OC)cc3C2)cc1`, with 162 to 163 °C; and `CC1(N)CN(C(=O)Nc2ccc(C(F)(F)F)cc2)N=C1c1ccc(Cl)cc1` (configuration not stated), with 165 to 167 °C. The molecule `CCOCc1nc2c(N)nc3ccccc3c2n1CC1(C(N)=O)CC1` displayed a melting point of 230 to 232 °C. Molecule `Cc1nc2cc(C(=O)NC3CC3)c(NC(=O)c3cc(C(F)(F)F)nn3-c3ncccc3Cl)c(Cl)c2n1C` had a melting point of 233 to 235 °C. Then `Nc1ccc(N2CCOC2=O)c(Cl)c1`, with 151 to 153 °C; and `CCc1nc2c(N)nc3ccccc3c2n1CCCCNC(=O)C1CCCC1`, with 179 to 180 °C; and `CC(C)(C)OC(=O)C[C@H](NC(=O)CNC(=O)c1csc(NC(=O)NCc2ccccc2)n1)C(=O)OC(C)(C)C`, with 111 to 114 °C. Molecule `O=P(O)(O)Cc1ccc(S(=O)(=O)c2ccccc2)cc1` returned a melting point of 217 to 219 °C. `CCN(c1nc(C)cc(C)n1)c1ccc(N(C)C(C)=O)cc1SC` gave a melting point of 158 to 160 °C. Next, `Nc1cccc(NCCO)c1[N+](=O)[O-]`: 129 °C; `CC(=O)Oc1c(C)c(C)c2c(c1C)CCC(C)(C(=O)OCCNCc1cc(N3CCCC3)nc(N3CCCC3)n1)O2` (configuration not stated): 69.5 to 76 °C; `Cc1c(/C=C/C(=O)c2c[nH]c3ccccc23)ncn1C(c1ccccc1)(c1ccccc1)c1ccccc1`: 240 to 242 °C. Then `Cc1nn(C)c(OCC(=O)C(C)(C)C)c1C(=O)c1ccc(Cl)cc1Cl`, with 104 to 105 °C; and `CC1(C)CCC(C)(C)c2nc3c(nc21)CCc1c(-c2ccc(C(=O)O)cc2)cn(Cc2cccnc2)c1-3`, with 149 to 151 °C; and `CC1(C)OC(=O)Nc2ccc(-c3ccc(F)cc3)cc21`, with 232 to 233 °C. Consider `FC(F)(F)c1cnc(CNC(=S)Nc2ccccc2Cl)c(Cl)c1`, for which the melting point was found to be 126 °C. `CC1(C)C(=O)Nc2cc(-c3nc4ccc(Cl)cc4[nH]3)ccc21` came in with a melting point of 287 to 289 °C. Next, `CCCn1cc(C(=O)O)c(=O)c2cnc(N3CCN(C)CC3)nc21`: 254 to 257 °C; `Cc1nc(Cl)c(-c2c(F)cccc2F)n1-c1ccc(Cl)cc1`: 143 to 145 °C; `COC(=O)c1ccc(OC(Cc2ccccc2)C(=O)OC)cc1` (configuration not stated): 96 to 98 °C. Next, `CCOCc1nc2c(N)nc3ccccc3c2n1CC1(NC(=O)NC(C)C)CCCCC1`: 135 to 160 °C; `Cc1cc(C(=O)OC(CC(C)C)C(=O)O)cc(C)n1` (racemic): 95 to 96 °C; `Cc1nc2ccnn2c2c1CCN2C(C)(C)C`: 144 to 146 °C.

Consider `Cc1c(-c2ccc(O)c(F)c2)sc(C=O)c1-c1ccc(O)c(Cl)c1`, for which the melting point lay in the range of 252 to 254 °C. Next, `COc1ccc2cc([C@H](C)C(=O)ON3C(=O)c4ccccc4C3=O)ccc2c1`: 110 to 112 °C; `COC(=O)c1ccccc1S(=O)(=O)N(n1cnn(-c2nc(OC)cc(OC)n2)c1=O)S(=O)(=O)c1ccccc1C(=O)OC`: 176 °C. Molecule `CC1C(C)(C)c2ccc(C#Cc3ccc(C=O)cc3)cc2C1(C)C` (configuration not stated) gave a melting point of 106 to 107 °C. Next, `COc1ccc2nc(NCC3CCN(CC4COc5ccccc5O4)CC3)sc2c1` (configuration not stated): 135 °C; `O=C1NC(=O)c2c1c(-c1ccccc1)cc1c2c2cc(O)ccc2n1CCCN1CCNCC1`: 178 to 183 °C; `Cc1c(-c2ccc(NC(=O)NC(C)(C)C)cc2)nc2n1CCc1ccccc1C2OC1CCN(C)CC1` (configuration not stated): 173 °C.

As for `Cc1cccc2c1NC(=O)c1cscc1O2`, the melting point was in the range of 194 to 195 °C. Molecule `c1ccc(CN2CC3Cc4ccccc4OC3C2)cc1` (configuration not stated) showed a melting point of 68 to 70 °C. `COCCc1nc2c(N)nc3ccccc3c2n1CCCCCCCCNS(C)(=O)=O` returned a melting point of 109 to 110 °C.

As to `Cc1cc(NC(=O)CC(C)(C)C)c(C)c2c1OCC2c1ccc(C(C)C)cc1` (configuration not stated), the melting point was in the range of 135 to 136 °C. On to `O=C(Nc1ccccn1)c1cnc2c(c1O)CCCC2`, for which the melting point was over 300 °C. Then `NS(=O)(=O)c1ncccc1F`, with 124 to 125 °C; and `CC(O)c1cccc2c1OCO2` (configuration not stated), with 45 to 46 °C.

As to `CN1CC[C@]2(c3cccc(O)c3)CC(=O)CC[C@@H]2C1` (relative stereo), the melting point stood at 175 °C. Then `CCn1cc(C(=O)O)c(=O)c2cc(F)c(N[C@@H]3CCC[C@@H]3N)cc21` (relative stereo), with 233 to 235 °C. The molecule `CC(C)(C)OC(=O)N1CCN(C(=O)C2CCN(C(=O)OCc3ccccc3)C2)CC1` (configuration not stated) displayed a melting point of 70 to 74 °C.

As for `O=C(Nc1cc(C(F)(F)F)ccc1N1CCCCCC1)c1ccncc1`, the melting point was 138 to 139 °C. Regarding `CC(C)Cn1c(CO)c(-c2cccc(F)c2)c2cc(OCc3ccccc3)ccc2c1=O`, the melting point was 146 °C. Then `COc1ccc(C(=O)c2ccc(OCCc3nc(-c4ccccc4)oc3C)nc2)c(O)c1`, with 114 to 115 °C.

On to `N#Cc1ccc(C(OCC2OC(n3ccc(=O)[nH]c3=O)CC2O)(c2ccccc2)c2ccccc2)cc1` (configuration not stated), for which the melting point lay in the range of 92 to 95 °C.

Take `c1cc(OCCCNCC2COc3cc4c(cc3O2)OCO4)c2cccnc2c1` (configuration not stated): the melting point was 140 to 145 °C. Then `CCCCNc1ccn2ncc(Br)c2n1`, with 94 to 95 °C; and `O=C(O)CCC1CCN(C(=O)CN2CCN(c3ccncc3)CC2)CC1`, with 90 to 92 °C; and `Cc1c(O)cc2c(c1C)CCC2c1c[nH]cn1` (configuration not stated), with 198 to 202 °C. Next, `N#C/C=C/C1CN(C(c2ccccc2)c2ccccc2)C1`: 108 to 110 °C; `Cn1nnc2ccc(C(c3ccc(Cl)cc3)n3ccnc3)cc21` (configuration not stated): 87.7 °C; `CC(C(=O)O)c1ccc2noc(-c3ccccc3)c2c1` (configuration not stated): 145 to 149 °C. Next, `COC(=O)Cc1ccc(C(=O)c2ccc(C)cc2)n1C`: 117 to 118 °C. For `COc1ccc2cc(CN(C)C(=O)c3oc4ccccc4c3C)ccc2c1Br`, the melting point fell in the range of 138 to 140 °C. Then `Cc1cc(NC(=O)CCc2cccs2)cc(C)c1O`, with 158 to 159 °C. In turn, `COc1ccc(-c2nc(O)c(-c3ccccc3)s2)cc1` returned a melting point of 218 to 221 °C.

As for `CCNC(=O)c1ccc(N2CCN(Cc3cc4c(c(OC)c3)OCC(=O)N4)CC2)c(C)c1`, the melting point fell in the range of 208 to 225 °C. For the molecule `CCOC(=O)C=Cc1ccc(OCc2ccccc2)c(OC)c1`, the melting point is 74.5 to 75 °C.

Turning to `CCCCCCCCOc1ccc(C(=O)OC(C)c2cc3c(s2)-n2c(C)nnc2CN=C3c2ccccc2Cl)cc1` (configuration not stated), the melting point lay in the range of 56 to 61 °C.

The molecule `Cc1c(CN2CCOCC2)sc2c(Br)c3ccccc3c(-c3cc(Br)c(O)c(Br)c3)c12` had a melting point of 237 to 240 °C. Consider `CN(C(=S)Nc1nc(OCC(F)(F)F)cc(OCC(F)(F)F)n1)c1ccc(C(F)(F)F)cc1`, for which the melting point fell in the range of 109 to 111 °C.
